Test results from patent US7087620B2, “Liquid pharmaceutical formulations containing 3,7-diazabicyclo[3,3,1]nonane compounds and methods of treatment relating to anti-arrhythmic events” (Solvay Pharmaceuticals GmbH, priority 2002, dated 2006).
Where two headings read alike, the source gives them in different places.

Columns and labels:
[1] = Two step infusion study in healthy male subjects: pharmacokinetics (Tedisamil plasma concentration); type: in vivo; details: human; for Tmax: male, iv, 0.4 mg/kg, after start of infusion, 0.4 mg/kg iv two step infusion
Experimental: (§1) A double-blind, placebo-controlled, randomized, single iv dose, two periods cross-over study to assess the safety, tolerability, pharmacodynamics and pharmacokinetics during and following a two step infusion of Tedisamil in healthy male subjects was performed with the following drug and dosages: Tedisamil dihydrochloride/0.4 mg/kg body weight infused over 30 minutes.
Subjects were included in the study only if they were healthy males, their age was in the range of 18-40 years (both inclusive), their body mass index (BMI) was between 18 kg/m^2 and 28 kg/m^2. Test product, dose and mode of administration: Tedisamil dihydrochloride; Strength: 2 mg/ml; Dose: 0.4 mg/kg body weight infused over 30 minutes, with half of the dose infused over 10 minutes and half of the dose infused over the remaining 20 minutes. Route: intravenous.
Blood samples for determination of Tedisamil plasma concentration were taken at several time points during and following intravenous drug administration in both study periods. The following pharmacokinetic parameters were determined: AUC(0-inf), AUC(0-t), Cmax, Tmax, t1/2, λz, Vss, CL, MRT and the number of data points considered for the determination of terminal half life.
Geometric means and corresponding 90% confidence intervals were calculated for the plasma concentration of tedisamil at each time-point, for AUC, AUC(0-t), CL, and Cmax.
Arithmetic means and corresponding 90% confidence intervals were calculated for the other variables (Vss, λz, t1/2, MRT). Tmax was described using minimum, median, maximum, and frequency counts. Individual and mean plasma-concentration versus time curves were plotted using both linear and semi-logarithmic scale.

healthy male subjects = experiment: Two step infusion study in healthy male subjects: safety and tolerability; type: in vivo, human; details: for Safety and tolerability: two step infusion of 0.4 mg tedisamil dihydrochloride per kg (0.32 mg/kg base)
Experimental: as §1
Screening assessments included physical examination, ECG, HIV/Hepatitis screening, blood pressure and heart rate measurements, clinical laboratory determinations, urine drug screen, alcohol breath test, and medical history. Follow-up assessments included physical examination, ECG, blood pressure and heart rate measurements, clinical laboratory determinations, and questions for adverse events and concomitant medication. During concomitant administration of Tedisamil, blood pressure, heart rate, and ECGs were recorded. Adverse events and concomitant medication were monitored throughout the study.
Subjects who received study medication, were considered valid for safety evaluation.
Treatment emergent adverse events, defined as any adverse event present at baseline that worsened or any event that began after treatment with study medication, were summarized by COSTART term for each treatment group. Each adverse event was evaluated for frequency of occurrence, duration, intensity, action taken, outcome, and relationship to administration of the study medication. Adverse events were listed for each subject.
Listings of abnormal or out of range values for each subject were presented for vital signs, laboratory assays, and physical examinations. Adverse events, blood pressure, heart rate and clinical laboratory data were analyzed descriptively and reviewed to evaluate the safety of all randomized subjects. Any clinical abnormalities were described.

AF/AFL patients = experiment: Single infusion over 10 minutes in AF/AFL patients; type: in vivo, human; details: intravenous doses of up to 0.24 mg/kg TEDI base, infused over 10 minutes
[2] = system: subjects with recent onset atrial fibrillation or flutter; experiment: Phase III study of intravenous tedisamil sesquifumarate in subjects with recent onset atrial fibrillation or flutter; type: in vivo, human; details: second study (Phase III)
Experimental: This second clinical study was a Multi-Center, Double-Blind, Randomized, Placebo-Controlled, Parallel Design Study to evaluate the Efficacy and Safety of Intravenous Tedisamil Sesquifumarate in the Rapid Conversion to Normal Sinus Rhythm in Subjects with Recent Onset Atrial Fibrillation or Flutter.
The active ingredient used was tedisamil sesqifumarate. […] Study duration: Screening: up to 48 hours; treatment (in-patient): single 30-minute infusion; safety follow up: 24 hours (in-patient) with continuous telemetry and 28 day safety follow up. […]

## C1CCC2(C1)C1CN(CC3CC3)CC2CN(CC2CC2)C1 [Tedisamil, N,N′-dicyclopropylmethyl-9,9-tetramethylene-3,7-diazabicyclo[3,3,1]nonane]
[1]; 0.4 mg/kg tedisamil dihydrochloride iv, two step infusion over 30 minutes, read-out: AUC(0-inf), Geom. Mean
  AUC(0-inf): 1720 ng·h/mL
[1]; 0.4 mg/kg tedisamil dihydrochloride iv, two step infusion over 30 minutes, read-out: AUC(0-t), Geom. Mean
  AUC(0-t): 1670 ng·h/mL
[1]; 0.4 mg/kg tedisamil dihydrochloride iv, two step infusion over 30 minutes, read-out: CL, Geom. Mean
  clearance: 315 mL/min
[1]; 0.4 mg/kg tedisamil dihydrochloride iv, two step infusion over 30 minutes, read-out: Cmax, Geom. Mean
  Cmax: 905 ng/mL
[1]; 0.4 mg/kg tedisamil dihydrochloride iv, two step infusion over 30 minutes, read-out: t½, Arithmetic mean (converted)
  half-life: 330 min
[1]; read-out: Time of peak plasma concentration (Tmax), median (converted)
  Tmax: 12.5 min
[1]; read-out: Time of peak plasma concentration (Tmax), range
  Tmax: 5 to 75 min
Healthy male subjects; 0.4 mg/kg iv two step infusion, all judged probably related (injection site reaction, pain injection site, paresthesia)
  Adverse events (AEs): six AEs were observed in five subjects
Healthy male subjects; first four hours after dosing, 0.4 mg/kg iv two step infusion
  Systolic and diastolic blood pressure change: small increase in the arithmetic mean of systolic and diastolic blood pressure
Healthy male subjects; first hour after dosing, 0.4 mg/kg iv two step infusion
  Pulse rate change: decrease in pulse rate
Healthy male subjects
  Safety and tolerability: safe and well tolerated
Healthy male subjects; listed as TEDI
  Safety and tolerability: safe and well tolerated
AF/AFL patients
  Conversions in AF/AFL patients: did not produce any conversions
[2]
  Gender difference in conversion rate: male patients show a higher conversion rate compared to women
